Measured values: patent publication US20220395553A1, “CXCR4 ANTAGONIST PEPTIDES” (COHBAR, INC., priority 2019, published 2022)
Peptide text beside a SMILES is read from it.

Assays:
Jurkat cells = assay: CXCL12 mediated cell migration, Jurkat cells; type: cell-based, human; details: 1.1 μM test article, 100 ng/ml CXCL12, 1 hour
Experimental: The assay was performed following a protocol similar to that described by Peng, et al., Mol Cancer Ther., 14480-90 (2015), incorporated herein by reference. Peptides were initially prepared as 1 mM stock in H2O and tested at a final concentration of 1.1 μM. […] Jurkat cells were resuspended in serum free media (RPMI+GlutaMax; Gibco/Thermo Fisher Scientific; Gaithersburg, Md.) containing 0.5% bovine serum albumin at density of 5×10^6 cells/ml. […] Cells (250,000 cells in 50 μl) supplemented with the appropriate treatments were seeded on to the upper chamber of a 96-well 5 μm HTS Transwell filter insert (Corning/Costar; Tewksbury, Mass.). […] Filter inserts were immediately placed on top of 96-well receiver trays and placed at 37° C. in a humidified atmosphere of 5% CO2/95% air for 1 hour. Following the 1 hour incubation period the filter inserts were carefully removed and the migration of cells across the filter into the bottom chamber (receiver wells) was determined by measuring ATP levels using Cell TiterGlo 2.0, according to manufacturer's instructions (Promega; Madison, Wis.); luminescence was measured using a Cytation 3 plate reader (BioTek; Winooski, Vt.).

[1] = system: CXCR4/CXCL12 induced p-MEK; assay: CXCR4/CXCL12 induced p-MEK in Jurkat cells (ELISA); type: cell-based, human; details: 5 nM CXCL12, 5 min
Outline: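 Jurkat cells in RPMI+GlutaMax containing 10% FBS and 1% penicillin/streptomycin, fresh or conditioned, were resuspended at 2×10^6 cells/ml and […] aliquots placed in tubes. After a 5 min stimulation they were pelleted, rinsed with HBSS and lysed with PMSF and protease/phosphatase inhibitors. Phospho-MEK1 (Ser217/221) was quantified by sandwich ELISA with absorbance read at 450 nm.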

human CXCR4 [2] = molecular target: T1, human CXCR4 (Homo sapiens, UniProt P61073); assay: CXCR4/CXCL12 binding, HTRF format, single concentration (Example 23); design: host or cells: HEK293 (Tag-lite CXCR4 cells, frozen aliquots, transient expression); details: 15 nM CXCR4R fluorescent probe, 3 hours, HEK293 Tag-lite CXCR4 cells
T1 sequence (P61073 whole entry): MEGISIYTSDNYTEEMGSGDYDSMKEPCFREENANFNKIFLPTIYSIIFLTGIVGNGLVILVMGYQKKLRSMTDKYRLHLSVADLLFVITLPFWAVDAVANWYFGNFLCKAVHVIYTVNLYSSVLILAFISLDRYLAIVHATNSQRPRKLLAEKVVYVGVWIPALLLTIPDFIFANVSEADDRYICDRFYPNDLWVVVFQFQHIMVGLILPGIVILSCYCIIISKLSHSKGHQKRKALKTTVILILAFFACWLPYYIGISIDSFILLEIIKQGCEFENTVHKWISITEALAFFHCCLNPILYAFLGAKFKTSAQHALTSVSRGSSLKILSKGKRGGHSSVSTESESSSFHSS
Outline: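 Tag-lite CXCR4 cells were exposed to peptide at 400 nM final with 15 nM (EC80) fluorescent CXCR4 probe for 3 h at room temperature. HTRF was read, and the 665/620 nm ratio ×10,000 measured probe bound to terbium-labelled receptor.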

human CXCR4 [3] = molecular target: T1, human CXCR4; assay: IC50 for CXCR4/CXCL12 ligand binding, HTRF format (Example 24); design: host or cells: HEK293 (Tag-lite CXCR4 cells, frozen aliquots, transient expression)
Experimental: Peptides were initially prepared as 1 mM stock in H2O. […] Following the manufacture's protocol, a frozen aliquot of Tag-lite CXCR4 cells was thawed and immediately seeded onto 384-well plates in TLB. […] The plates were covered in aluminum foil and left at room temperature for 3 hours. Following the 3 hour incubation period, the plates were removed from the incubator and fluorescence measured using a Cytation 1 plate reader using a HTRF filter cube ([…]; BioTek; Winooski, Vt.).

human CXCR4 [4] = molecular target: T1, human CXCR4; assay: IC50 for inhibition of CXCR4 activation, β-Arrestin recruitment (Example 22); type: cell-based; design: host or cells: C2C12 (mouse myoblast) CXCR4 β-Arrestin PathHunter cell line
Outline: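 C2C12 cells co-expressing ProLink-tagged human CXCR4 and Enzyme Acceptor-tagged β-arrestin (PathHunter). Peptides tested in 10-point, 3-fold dilutions from 1 μM (1 μM–0.05 nM). Recruitment read by chemiluminescent enzyme-fragment complementation after 90 min incubation.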

Row | SMILES | Percent Inhibition of CXCL12 Mediated Migration (1.1 μM Test Article) (Jurkat cells) [%] | Percent Inhibition of CXCR4/CXCL12 Induced p-MEK (100 nM Test Article) [1] [%] | Percent Inhibition of CXCR4/CXCL12 Induced p-MEK (1 μM Test Article) [1] [%] | Percent Inhibition of CXCR4/CXCL12 Binding (400 nM peptide) (human CXCR4 [2]) [%] | IC50 (human CXCR4 [3]) [nM] | IC50 (human CXCR4 [4]) [nM]
1 | CC(C)C[C@H](NC(=O)[C@H](CO)NC(=O)[C@H](CO)NC(=O)[C@H](CCCNC(=N)N)NC(=O)[C@@H](NC(=O)[C@H](CO)NC(=O)[C@H](Cc1c[nH]cn1)NC(=O)[C@H](Cc1c[nH]cn1)NC(=O)[C@H](Cc1ccc(O)cc1)NC(=O)[C@H](CCCNC(=N)N)NC(=O)[C@H](CC(=O)O)NC(=O)[C@@H](N)CC(C)C)C(C)C)C(=O)N[C@@H](CCCNC(=N)N)C(=O)N1CCC[C@H]1C(=O)N[C@@H](Cc1ccc(O)cc1)C(=O)N[C@H](C(=O)N[C@@H](CCCCN)C(=O)O)[C@@H](C)O [compound 7] (H-LDRYHHSVRSSLRPYTK-OH; N-terminus and C-terminus assumed) | 52 | 60 | 96 | 89 | 5 | 
2 | CC(C)C[C@H](NC(=O)[C@H](CO)NC(=O)[C@H](CO)NC(=O)[C@H](CCCNC(=N)N)NC(=O)[C@@H](NC(=O)[C@H](CO)NC(=O)[C@H](Cc1c[nH]cn1)NC(=O)[C@H](Cc1c[nH]cn1)NC(=O)[C@H](Cc1ccc(O)cc1)NC(=O)[C@H](CCCNC(=N)N)NC(=O)[C@H](CCCNC(=N)N)NC(=O)[C@@H](N)CC(C)C)C(C)C)C(=O)N[C@@H](CCCNC(=N)N)C(=O)N1CCC[C@H]1C(=O)N[C@@H](Cc1ccc(O)cc1)C(=O)N[C@H](C(=O)N[C@@H](CCCCN)C(N)=O)[C@@H](C)O [compound 16] (H-LRRYHHSVRSSLRPYTK-NH2; N-terminus assumed) | 21 | 74 | 100 | −2 | 573 | 8
3 | CC(C)C[C@H](NC(=O)[C@H](CO)NC(=O)[C@H](CO)NC(=O)[C@H](CCCNC(=N)N)NC(=O)[C@@H](NC(=O)[C@@H](NC(=O)[C@H](Cc1c[nH]cn1)NC(=O)[C@H](Cc1c[nH]cn1)NC(=O)[C@H](Cc1ccc(O)cc1)NC(=O)[C@H](CCCNC(=N)N)NC(=O)[C@H](CCCNC(=N)N)NC(=O)[C@@H](N)CC(C)C)[C@@H](C)O)C(C)C)C(=O)N[C@@H](CCCNC(=N)N)C(=O)N1CCC[C@H]1C(=O)N[C@@H](Cc1ccc(O)cc1)C(=O)N[C@H](C(=O)N[C@@H](CCCCN)C(=O)O)[C@@H](C)O [compound 38] (H-LRRYHHTVRSSLRPYTK-OH; N-terminus and C-terminus assumed) |  | 51 | 96 | 12 | 175 | 3
4 | CC(C)C[C@H](NC(=O)[C@H](CO)NC(=O)[C@H](CO)NC(=O)[C@H](CCCNC(=N)N)NC(=O)[C@@H](NC(=O)[C@@H](NC(=O)[C@H](Cc1c[nH]cn1)NC(=O)[C@H](Cc1c[nH]cn1)NC(=O)[C@H](Cc1ccc(O)cc1)NC(=O)[C@H](CCCNC(=N)N)NC(=O)[C@H](CCC(=O)O)NC(=O)[C@@H](N)CC(C)C)[C@@H](C)O)C(C)C)C(=O)N[C@@H](CCCNC(=N)N)C(=O)N1CCC[C@H]1C(=O)N[C@@H](Cc1ccc(O)cc1)C(=O)N[C@H](C(=O)N[C@@H](CCCCN)C(=O)O)[C@@H](C)O [compound 39] (H-LERYHHTVRSSLRPYTK-OH; N-terminus and C-terminus assumed) | 77 | 38 | 95 | 87 | 8 | 3
5 | CC(C)C[C@H](NC(=O)[C@H](CO)NC(=O)[C@H](CO)NC(=O)[C@H](CCCNC(=N)N)NC(=O)[C@@H](NC(=O)[C@H](CO)NC(=O)[C@H](Cc1c[nH]cn1)NC(=O)[C@H](Cc1c[nH]cn1)NC(=O)[C@H](Cc1ccccc1)NC(=O)[C@H](CCCNC(=N)N)NC(=O)[C@H](CCCNC(=N)N)NC(=O)[C@@H](N)CC(C)C)C(C)C)C(=O)N[C@@H](CCCNC(=N)N)C(=O)N1CCC[C@H]1C(=O)N[C@@H](Cc1ccc(O)cc1)C(=O)N[C@H](C(=O)N[C@@H](CCCCN)C(=O)O)[C@@H](C)O [compound 53] (H-LRRFHHSVRSSLRPYTK-OH; N-terminus and C-terminus assumed) | 59 | 62 | 98 | 5 |  | 3
6 | CC(C)C[C@H](NC(=O)[C@H](CO)NC(=O)[C@H](CO)NC(=O)[C@H](CCCNC(=N)N)NC(=O)[C@@H](NC(=O)[C@H](CO)NC(=O)[C@H](Cc1c[nH]cn1)NC(=O)[C@H](Cc1c[nH]cn1)NC(=O)[C@H](Cc1ccccc1)NC(=O)[C@H](CCCNC(=N)N)NC(=O)[C@H](CCC(=O)O)NC(=O)[C@@H](N)CC(C)C)C(C)C)C(=O)N[C@@H](CCCNC(=N)N)C(=O)N1CCC[C@H]1C(=O)N[C@@H](Cc1ccc(O)cc1)C(=O)N[C@H](C(=O)N[C@@H](CCCCN)C(=O)O)[C@@H](C)O [compound 54] (H-LERFHHSVRSSLRPYTK-OH; N-terminus and C-terminus assumed) | 54 | 46 | 92 | 79 | 8 | 3
7 | CC(C)C[C@H](NC(=O)[C@H](CO)NC(=O)[C@@H](NC(=O)[C@H](CCCNC(=N)N)NC(=O)[C@@H](NC(=O)[C@H](CO)NC(=O)[C@H](Cc1c[nH]cn1)NC(=O)[C@H](Cc1c[nH]cn1)NC(=O)[C@H](Cc1ccc(O)cc1)NC(=O)[C@H](CCCNC(=N)N)NC(=O)[C@H](CCC(=O)O)NC(=O)[C@@H](N)CC(C)C)C(C)C)[C@@H](C)O)C(=O)N[C@@H](CCCNC(=N)N)C(=O)N1CCC[C@H]1C(=O)N[C@@H](Cc1ccc(O)cc1)C(=O)N[C@H](C(=O)N[C@@H](CCCCN)C(=O)O)[C@@H](C)O [compound 73] (H-LERYHHSVRTSLRPYTK-OH; N-terminus and C-terminus assumed) | 82 | 47 | 96 | 87 |  | 4
8 | CC(C)C[C@H](NC(=O)[C@H](CO)NC(=O)[C@H](CO)NC(=O)[C@H](CCCNC(=N)N)NC(=O)[C@@H](NC(=O)[C@H](CO)NC(=O)[C@H](Cc1c[nH]cn1)NC(=O)[C@H](Cc1c[nH]cn1)NC(=O)[C@H](Cc1ccc(O)cc1)NC(=O)[C@H](CCCNC(=N)N)NC(=O)[C@H](CCCNC(=N)N)NC(=O)[C@@H](N)CC(C)C)C(C)C)C(=O)N[C@@H](CCCNC(=N)N)C(=O)NCC(=O)N[C@@H](Cc1ccc(O)cc1)C(=O)N[C@H](C(=O)N[C@@H](CCCCN)C(=O)O)[C@@H](C)O [compound 79] (H-LRRYHHSVRSSLRGYTK-OH; N-terminus and C-terminus assumed) | 36 | 46 | 100 | 12 |  | 3
